Columns and labels:
[1] = molecular target: T1, Solute carrier organic anion transporter family member 1B3 (Homo sapiens, UniProt Q9NPD5); details: chinese hamster, cho, 10 µM
T1 sequence (Q9NPD5 whole entry): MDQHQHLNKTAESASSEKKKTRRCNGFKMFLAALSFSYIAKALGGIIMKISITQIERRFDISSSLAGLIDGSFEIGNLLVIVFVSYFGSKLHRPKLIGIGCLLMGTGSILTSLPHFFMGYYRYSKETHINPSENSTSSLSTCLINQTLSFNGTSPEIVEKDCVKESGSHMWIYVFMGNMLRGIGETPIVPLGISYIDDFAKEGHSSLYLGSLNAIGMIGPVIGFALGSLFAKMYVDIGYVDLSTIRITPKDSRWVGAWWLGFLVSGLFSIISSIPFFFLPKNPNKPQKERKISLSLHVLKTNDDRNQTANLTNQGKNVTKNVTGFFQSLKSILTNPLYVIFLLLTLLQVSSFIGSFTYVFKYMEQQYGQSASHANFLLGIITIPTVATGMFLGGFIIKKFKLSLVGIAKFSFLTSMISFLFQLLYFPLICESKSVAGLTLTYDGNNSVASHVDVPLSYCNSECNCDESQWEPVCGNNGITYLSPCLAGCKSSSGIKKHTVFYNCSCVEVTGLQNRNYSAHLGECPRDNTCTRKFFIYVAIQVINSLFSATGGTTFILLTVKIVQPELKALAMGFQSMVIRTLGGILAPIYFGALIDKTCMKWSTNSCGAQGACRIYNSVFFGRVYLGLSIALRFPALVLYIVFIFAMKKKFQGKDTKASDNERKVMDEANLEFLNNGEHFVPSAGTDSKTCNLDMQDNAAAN

[2] = molecular target: T2, Solute carrier organic anion transporter family member 1B1 (Homo sapiens, UniProt Q9Y6L6); details: chinese hamster, cho, 10 µM
T2 sequence (Q9Y6L6 whole entry): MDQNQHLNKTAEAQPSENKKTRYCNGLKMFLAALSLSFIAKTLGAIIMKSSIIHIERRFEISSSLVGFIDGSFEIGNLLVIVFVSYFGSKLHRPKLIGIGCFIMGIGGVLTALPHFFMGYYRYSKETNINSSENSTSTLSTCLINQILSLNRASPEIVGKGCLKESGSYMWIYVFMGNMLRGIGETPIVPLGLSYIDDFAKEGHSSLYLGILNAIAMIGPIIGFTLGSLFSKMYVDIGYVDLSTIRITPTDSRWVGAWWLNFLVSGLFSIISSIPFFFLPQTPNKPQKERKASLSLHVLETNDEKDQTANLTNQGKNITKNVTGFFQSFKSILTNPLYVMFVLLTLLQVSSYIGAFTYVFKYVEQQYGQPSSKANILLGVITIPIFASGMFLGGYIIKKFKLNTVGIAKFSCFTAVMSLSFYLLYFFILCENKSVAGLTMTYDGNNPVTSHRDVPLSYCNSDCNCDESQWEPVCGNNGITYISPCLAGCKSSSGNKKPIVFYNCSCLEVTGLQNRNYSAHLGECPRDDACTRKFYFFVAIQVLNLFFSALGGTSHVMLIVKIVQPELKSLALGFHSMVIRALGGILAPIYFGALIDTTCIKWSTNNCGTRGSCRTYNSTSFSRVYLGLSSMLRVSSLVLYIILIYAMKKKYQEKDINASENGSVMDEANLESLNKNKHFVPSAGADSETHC

Compound | residual activity [1] | residual activity [2]
CCn1cc(C(=O)O)c(=O)c2cnc(N3CCCC3)nc21 [PIROMIDIC ACID] | 101% | 79.57%
CN1C(C(=O)Nc2ccccn2)=C(O)c2ccccc2S1(=O)=O [PIROXICAM] | 87.59% | 68.52%
O=C(O)[C@H](O)[C@@](O)(Cc1ccc(O)cc1)C(=O)O [PISCIDIC ACID] | 90.37% | 92.25%
COc1cc([C@@H]2c3cc4c(cc3[C@H](O)[C@H]3COC(=O)[C@H]23)OCO4)cc(OC)c1OC [PODOFILOX] | 95.19% | 63.87%
CC(C)=CCc1c2c(c3occ(-c4ccc(O)c(O)c4)c(=O)c3c1O)C=CC(C)(C)O2 [POMIFERIN] | 87.87% | 114.2%
O=C(O)Cc1nn(Cc2ccc(Br)cc2F)c(=O)c2ccccc12 [PONALRESTAT] | 83.62% | 139.9%
CC(=O)Nc1ccc(OCC(O)CNC(C)C)cc1 (configuration not stated) [PRACTOLOL] | 99.03% | 107.1%
CS(=O)(=O)[O-].C[n+]1ccccc1C=NO [PRALIDOXIME MESYLATE] | 98.72% | 73.31%
CCCCOc1ccc(OCCCN2CCOCC2)cc1.Cl [PRAMOXINE HYDROCHLORIDE] | 99.07% | 112%
CC[C@H](C)C(=O)O[C@H]1C[C@H](O)C=C2C=C[C@H](C)[C@H](CC[C@@H](O)C[C@@H](O)CC(=O)[O-])[C@H]21.[Na+] [PRAVASTATIN SODIUM] | 102.8% | 100.3%
O=C(C1CCCCC1)N1CC(=O)N2CCc3ccccc3C2C1 (configuration not stated) [PRAZIQUANTEL] | 125.5% | 162.2%
COc1cc2nc(N3CCN(C(=O)c4ccco4)CC3)nc(N)c2cc1OC.Cl [PRAZOSIN HYDROCHLORIDE] | 90.48% | 99.58%
CC(=O)OCC(=O)[C@@]1(O)CC[C@H]2[C@@H]3CCC4=CC(=O)C=C[C@]4(C)[C@H]3[C@@H](O)C[C@@]21C [PREDNISOLONE ACETATE] | 106.7% | 63.69%
C[C@]12C=CC(=O)C=C1CC[C@@H]1[C@@H]2[C@@H](O)C[C@@]2(C)[C@H]1CC[C@]2(O)C(=O)CO [PREDNISOLONE] | 110.4% | 79.83%
CC(C)C[C@H](CN)CC(=O)O [PREGABALIN] | 101.4% | 120.6%
CC(C)=CCOc1cc2oc(=O)ccc2cc1O [PRENYLETIN] | 136% | 176.8%
CS(=O)(=O)O.OC(CCN1CCCCC1)(c1ccccc1)c1ccccc1 [PRIDINOL METHANESULFONATE] | 95.39% | 95.92%
CCCNC(C)C(=O)Nc1ccccc1C.Cl (configuration not stated) [PRILOCAINE HYDROCHLORIDE] | 74.6% | 87.24%
CCC1(c2ccccc2)C(=O)NCNC1=O [PRIMIDONE] | 90.17% | 78.09%
COC(=O)[C@]1(C)CC[C@]2(C)CC[C@]3(C)C4=CC=C5C(=CC(=O)C(O)=C5C)[C@]4(C)CC[C@@]3(C)[C@@H]2C1 [PRISTIMERIN] | 99.45% | 112.2%
COC(=O)[C@]1(C)CC[C@]2(C)CC[C@]3(C)C4=CCc5c(cc(OC(C)=O)c(OC(C)=O)c5C)[C@]4(C)CC[C@@]3(C)[C@@H]2C1 [PRISTIMEROL DIACETATE] | 83.45% | 94.14%
COC(=O)[C@]1(C)CC[C@]2(C)CC[C@]3(C)C4=CCc5c(cc(O)c(O)c5C)[C@]4(C)CC[C@@]3(C)[C@@H]2C1 [PRISTIMEROL] | 86.64% | 70.1%
CCCC(C(=O)OCCN(CC)CC)(c1ccccc1)c1ccccc1.Cl [PROADIFEN HYDROCHLORIDE] | 53.55% | 36.21%

Compound | residual activity [1] | residual activity [2]
CCCN(CCC)S(=O)(=O)c1ccc(C(=O)O)cc1 [PROBENECID] | 89.44% | 81.99%
CC(C)(Sc1cc(C(C)(C)C)c(O)c(C(C)(C)C)c1)Sc1cc(C(C)(C)C)c(O)c(C(C)(C)C)c1 [PROBUCOL] | 90.56% | 102.2%
CCN(CC)CCNC(=O)c1ccc(N)cc1.Cl [PROCAINAMIDE HYDROCHLORIDE] | 104.4% | 81.68%
CCN(CC)CCOC(=O)c1ccc(N)cc1.Cl [PROCAINE HYDROCHLORIDE] | 104.2% | 104.1%
CC(=O)[C@H]1CC[C@H]2[C@@H]3CCC4=CC(=O)CC[C@]4(C)[C@H]3CC[C@]12C [PROGESTERONE] | 92% | 52.43%
CCCN(CCC)C(=O)C(CCC(=O)O)NC(=O)c1ccccc1 (configuration not stated) [PROGLUMIDE] | 104.8% | 105%
CC(C)NC(=N)NC(=N)Nc1ccc(Cl)cc1.Cl [PROGUANIL HYDROCHLORIDE] | 114.8% | 77.71%
CN(C)CCCN1c2ccccc2Sc2ccccc21.Cl [PROMAZINE HYDROCHLORIDE] | 81.19% | 82.72%
CC(CN1c2ccccc2Sc2ccccc21)N(C)C.Cl (configuration not stated) [PROMETHAZINE HYDROCHLORIDE] | 86.93% | 69.15%
COc1nc(NC(C)C)nc(NC(C)C)n1 [PROMETON] | 102.5% | 114.4%
CSc1nc(NC(C)C)nc(NC(C)C)n1 [PROMETRYN] | 86.3% | 175.4%
CC(C)N(C(=O)CCl)c1ccccc1 [PROPACHLOR] | 110.5% | 110.8%
CCC(=O)Nc1ccc(Cl)c(Cl)c1 [PROPANIL] | 115.2% | 92.07%
CC(C)[N+](C)(CCOC(=O)C1c2ccccc2Oc2ccccc21)C(C)C.[Br-] [PROPANTHELINE BROMIDE] | 110.4% | 110.4%
C#CCOS(=O)OC1CCCCC1Oc1ccc(C(C)(C)C)cc1 (configuration not stated) [PROPARGITE] | 106% | 93.31%
CC(C)Nc1nc(Cl)nc(NC(C)C)n1 [PROPAZINE] | 91.55% | 110.4%
CCCn1cnc2c1c(=O)n(CCCCC(C)=O)c(=O)n2C [PROPENTOFYLLINE] | 110.4% | 126.3%
CNC(=O)Oc1ccccc1OC(C)C [PROPOXUR] | 109.6% | 104%
CC(C)NCC(O)COc1cccc2ccccc12.Cl (configuration not stated) [PROPRANOLOL HYDROCHLORIDE] | 95.98% | 59.88%
CCCc1cc(=O)[nH]c(=S)[nH]1 [PROPYLTHIOURACIL] | 90.71% | 79.91%
C=CC1=C(C)c2cc3[nH]c(cc4nc(cc5[nH]c(cc1n2)c(C)c5CCC(=O)O)C(CCC(=O)O)=C4C)c(C)c3C=C [PROTOPORPHYRIN] | 94.63% | 49.56%
CC[C@@H](C)C(=O)O[C@H]1[C@H](O)[C@H]2[C@@H](CN3C[C@@H](C)CC[C@H]3[C@@]2(C)O)[C@@H]2C[C@]34O[C@]5(O)[C@@H](OC(=O)[C@@](C)(O)CC)CC[C@@]3(C)[C@@H]5[C@@H](OC(C)=O)[C@@H](OC(C)=O)[C@H]4[C@@]21O [PROTOVERATRINE A] | 77.86% | 93.58%
CC[C@@H](C)C(=O)O[C@H]1[C@H](O)[C@H]2[C@@H](CN3C[C@@H](C)CC[C@H]3[C@@]2(C)O)[C@@H]2C[C@]34O[C@]5(O)[C@@H](OC(=O)[C@](C)(O)[C@@H](C)O)CC[C@@]3(C)[C@@H]5[C@@H](OC(C)=O)[C@@H](OC(C)=O)[C@H]4[C@@]21O [PROTOVERATRINE B] | 125.5% | 114.4%

Reference: ChEMBL document CHEMBL3039007, “Structure-based identification of OATP1B1/3 inhibitors” (Mol Pharmacol, 2013)
